ChEMBL document CHEMBL4138084, “Structure-activity relationship study of the tumour-targeting peptide A20FMDV2 via modification of Lys16, Leu13, and N- and/or C-terminal functionality” (Eur J Med Chem, 2017)

Assays:
[1] = target: T1, Integrin alpha-V/beta-6 (Homo sapiens, UniProt P06756+P18564); experiment: Binding affinity to alphav/beta6 integrin in human A375Pbeta6 cells assessed as drug internalization at 100 nM after 15 mins by flow cytometric analysis relative to biotinylated A20FMDV2; type: ADME, cell-based; conditions: 0.25 h, 0.1 µM
Target sequence in this assay (P06756 31-889 limits assumed): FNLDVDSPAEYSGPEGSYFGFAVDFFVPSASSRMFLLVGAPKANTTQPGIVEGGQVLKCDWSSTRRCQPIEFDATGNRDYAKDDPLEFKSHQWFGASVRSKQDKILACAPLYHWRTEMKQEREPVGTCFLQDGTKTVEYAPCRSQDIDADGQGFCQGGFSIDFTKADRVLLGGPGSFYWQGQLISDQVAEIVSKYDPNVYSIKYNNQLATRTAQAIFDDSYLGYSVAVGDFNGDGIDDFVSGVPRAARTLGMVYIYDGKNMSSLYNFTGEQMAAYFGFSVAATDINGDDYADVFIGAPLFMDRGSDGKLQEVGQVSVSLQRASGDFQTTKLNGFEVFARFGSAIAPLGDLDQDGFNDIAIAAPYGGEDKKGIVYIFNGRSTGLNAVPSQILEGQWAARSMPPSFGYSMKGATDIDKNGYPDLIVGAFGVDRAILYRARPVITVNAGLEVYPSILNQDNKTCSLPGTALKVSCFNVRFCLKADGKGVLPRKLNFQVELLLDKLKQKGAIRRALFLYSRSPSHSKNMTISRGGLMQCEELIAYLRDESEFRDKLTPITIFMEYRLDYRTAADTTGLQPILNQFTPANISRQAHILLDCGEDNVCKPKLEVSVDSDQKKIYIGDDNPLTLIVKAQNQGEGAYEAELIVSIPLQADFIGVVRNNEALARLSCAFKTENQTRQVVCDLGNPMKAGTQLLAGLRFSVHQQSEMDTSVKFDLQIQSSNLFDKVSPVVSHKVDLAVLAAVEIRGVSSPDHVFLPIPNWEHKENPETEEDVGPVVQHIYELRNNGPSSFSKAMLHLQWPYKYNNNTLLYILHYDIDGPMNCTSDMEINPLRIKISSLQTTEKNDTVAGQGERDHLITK
Target sequence in this assay (P06756 891-1048 limits assumed): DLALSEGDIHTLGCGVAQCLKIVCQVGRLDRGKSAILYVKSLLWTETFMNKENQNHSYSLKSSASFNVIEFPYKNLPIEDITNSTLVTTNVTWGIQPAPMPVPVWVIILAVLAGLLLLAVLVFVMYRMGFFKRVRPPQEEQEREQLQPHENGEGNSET
Target sequence in this assay (P18564 22-788 limits assumed): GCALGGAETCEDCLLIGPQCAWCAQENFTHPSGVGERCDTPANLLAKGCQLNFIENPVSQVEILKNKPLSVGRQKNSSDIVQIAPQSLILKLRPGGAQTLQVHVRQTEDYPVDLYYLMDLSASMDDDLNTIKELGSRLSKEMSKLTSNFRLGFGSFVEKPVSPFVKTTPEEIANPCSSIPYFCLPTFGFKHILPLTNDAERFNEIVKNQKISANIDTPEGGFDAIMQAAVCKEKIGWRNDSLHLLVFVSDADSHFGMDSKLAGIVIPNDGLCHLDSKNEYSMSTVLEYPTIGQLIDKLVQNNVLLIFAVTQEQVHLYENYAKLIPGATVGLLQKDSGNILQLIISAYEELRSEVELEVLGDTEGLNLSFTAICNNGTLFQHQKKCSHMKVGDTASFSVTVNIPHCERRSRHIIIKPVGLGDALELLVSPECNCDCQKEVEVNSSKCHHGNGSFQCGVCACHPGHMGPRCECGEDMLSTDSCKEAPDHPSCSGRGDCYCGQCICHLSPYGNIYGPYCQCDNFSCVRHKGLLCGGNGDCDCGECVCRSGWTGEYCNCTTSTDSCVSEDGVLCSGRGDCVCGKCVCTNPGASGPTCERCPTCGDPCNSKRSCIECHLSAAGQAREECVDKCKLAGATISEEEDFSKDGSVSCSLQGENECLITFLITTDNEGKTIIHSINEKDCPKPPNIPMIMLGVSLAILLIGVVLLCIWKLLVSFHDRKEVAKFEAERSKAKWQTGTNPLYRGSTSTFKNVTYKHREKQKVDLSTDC

[2] = target: T1, Integrin alpha-V/beta-6; experiment: Binding affinity to alphav/beta6 integrin in human A375Pbeta6 cells at 100 nM after 15 mins by flow cytometric analysis relative to biotinylated A20FMDV2; type: cell-based
[3] = Drug uptake in human A375PPuro cells at 1000 nM after 15 mins by flow cytometric analysis; type: ADME, cell-based; conditions: 0.25 h, 1 µM

fold change (FC) [1]	fold change (FC) [2]	Drug uptake [3]	Structure (SMILES)
1.03	0.6	Not Active	CC(C)C[C@H](NC(=O)[C@H](CC(=O)O)NC(=O)CNC(=O)[C@H](CCCNC(=N)N)NC(=O)[C@H](CC(C)C)NC(=O)[C@H](CC(N)=O)NC(=O)[C@@H]1CCCN1C(=O)[C@@H](NC(=O)[C@H](CCCCNC(=O)CCCC[C@@H]1SC[C@@H]2NC(=O)N[C@@H]21)NC(=O)[C@@H](N)CC(N)=O)C(C)C)C(=O)N[C@@H](CCC(N)=O)C(=O)N[C@H](C(=O)N[C@@H](CC(C)(C)C)C(=O)N[C@@H](C)C(=O)N[C@@H](CCC(N)=O)C(=O)N[C@@H](CCCCN)C(=O)N[C@H](C(=O)N[C@@H](C)C(=O)N[C@@H](CCCNC(=N)N)C(=O)N[C@H](C(=O)O)[C@@H](C)O)C(C)C)C(C)C
1.07	0.51	Not Active	CC(C)C[C@H](NC(=O)[C@H](CC(=O)O)NC(=O)CNC(=O)[C@H](CCCNC(=N)N)NC(=O)[C@H](CC(C)C)NC(=O)[C@H](CC(N)=O)NC(=O)[C@@H]1CCCN1C(=O)[C@@H](NC(=O)[C@H](CCCCNC(=O)CCCC[C@@H]1SC[C@@H]2NC(=O)N[C@@H]21)NC(=O)[C@@H](N)CC(N)=O)C(C)C)C(=O)N[C@@H](CCC(N)=O)C(=O)N[C@H](C(=O)N[C@H](C(=O)N[C@@H](C)C(=O)N[C@@H](CCC(N)=O)C(=O)N[C@@H](CCCCN)C(=O)N[C@H](C(=O)N[C@@H](C)C(=O)N[C@@H](CCCNC(=N)N)C(=O)N[C@H](C(=O)O)[C@@H](C)O)C(C)C)C12CC3CC(CC(C3)C1)C2)C(C)C
0.82	0.58	Not Active	C=CC[C@H](NC(=O)[C@@H](NC(=O)[C@H](CCC(N)=O)NC(=O)[C@H](CC(C)C)NC(=O)[C@H](CC(=O)O)NC(=O)CNC(=O)[C@H](CCCNC(=N)N)NC(=O)[C@H](CC(C)C)NC(=O)[C@H](CC(N)=O)NC(=O)[C@@H]1CCCN1C(=O)[C@@H](NC(=O)[C@H](CCCCNC(=O)CCCC[C@@H]1SC[C@@H]2NC(=O)N[C@@H]21)NC(=O)[C@@H](N)CC(N)=O)C(C)C)C(C)C)C(=O)N[C@@H](C)C(=O)N[C@@H](CCC(N)=O)C(=O)N[C@@H](CCCCN)C(=O)N[C@H](C(=O)N[C@@H](C)C(=O)N[C@@H](CCCNC(=N)N)C(=O)N[C@H](C(=O)O)[C@@H](C)O)C(C)C
1.09	0.77	Not Active	CCC[C@H](NC(=O)[C@@H](NC(=O)[C@H](CCC(N)=O)NC(=O)[C@H](CC(C)C)NC(=O)[C@H](CC(=O)O)NC(=O)CNC(=O)[C@H](CCCNC(=N)N)NC(=O)[C@H](CC(C)C)NC(=O)[C@H](CC(N)=O)NC(=O)[C@@H]1CCCN1C(=O)[C@@H](NC(=O)[C@H](CCCCNC(=O)CCCC[C@@H]1SC[C@@H]2NC(=O)N[C@@H]21)NC(=O)[C@@H](N)CC(N)=O)C(C)C)C(C)C)C(=O)N[C@@H](C)C(=O)N[C@@H](CCC(N)=O)C(=O)N[C@@H](CCCCN)C(=O)N[C@H](C(=O)N[C@@H](C)C(=O)N[C@@H](CCCNC(=N)N)C(=O)N[C@H](C(=O)O)[C@@H](C)O)C(C)C
0.96	0.79	Not Active	CC(C)C[C@H](NC(=O)[C@H](CC(=O)O)NC(=O)CNC(=O)[C@H](CCCNC(=N)N)NC(=O)[C@H](CC(C)C)NC(=O)[C@H](CC(N)=O)NC(=O)[C@@H]1CCCN1C(=O)[C@@H](NC(=O)[C@H](CCCCNC(=O)CCCC[C@@H]1SC[C@@H]2NC(=O)N[C@@H]21)NC(=O)[C@@H](N)CC(N)=O)C(C)C)C(=O)N[C@@H](CCC(N)=O)C(=O)N[C@H](C(=O)N[C@@H](CC(C)C)C(=O)N[C@@H](C)C(=O)N[C@@H](CCC(N)=O)C(=O)N[C@@H](CN)C(=O)N[C@H](C(=O)N[C@@H](C)C(=O)N[C@@H](CCCNC(=N)N)C(=O)N[C@H](C(=O)O)[C@@H](C)O)C(C)C)C(C)C
1.01	0.62	Not Active	CC(C)C[C@H](NC(=O)[C@H](CC(=O)O)NC(=O)CNC(=O)[C@H](CCCNC(=N)N)NC(=O)[C@H](CC(C)C)NC(=O)[C@H](CC(N)=O)NC(=O)[C@@H]1CCCN1C(=O)[C@@H](NC(=O)[C@H](CCCCNC(=O)CCCC[C@@H]1SC[C@@H]2NC(=O)N[C@@H]21)NC(=O)[C@@H](N)CC(N)=O)C(C)C)C(=O)N[C@@H](CCC(N)=O)C(=O)N[C@H](C(=O)N[C@@H](CC1CCCCC1)C(=O)N[C@@H](C)C(=O)N[C@@H](CCC(N)=O)C(=O)N[C@@H](CCCCN)C(=O)N[C@H](C(=O)N[C@@H](C)C(=O)N[C@@H](CCCNC(=N)N)C(=O)N[C@H](C(=O)O)[C@@H](C)O)C(C)C)C(C)C
0.78	1.11	Not Active	CC(C)C[C@H](NC(=O)[C@H](CC(=O)O)NC(=O)CNC(=O)[C@H](CCCNC(=N)N)NC(=O)[C@H](CC(C)C)NC(=O)[C@H](CC(N)=O)NC(=O)[C@@H]1CCCN1C(=O)[C@@H](NC(=O)[C@H](CCCCNC(=O)CCCC[C@@H]1SC[C@@H]2NC(=O)N[C@@H]21)NC(=O)[C@@H](N)CC(N)=O)C(C)C)C(=O)N[C@@H](CCC(N)=O)C(=O)N[C@H](C(=O)N[C@@H](CC(C)C)C(=O)N[C@@H](C)C(=O)N[C@@H](CCC(N)=O)C(=O)N[C@H](CCCCN)C(=O)N[C@H](C(=O)N[C@@H](C)C(=O)N[C@@H](CCCNC(=N)N)C(=O)N[C@H](C(=O)O)[C@@H](C)O)C(C)C)C(C)C
0.52	0.7	Not Active	CCC(CC)[C@H](NC(=O)[C@@H](NC(=O)[C@H](CCC(N)=O)NC(=O)[C@H](CC(C)C)NC(=O)[C@H](CC(=O)O)NC(=O)CNC(=O)[C@H](CCCNC(=N)N)NC(=O)[C@H](CC(C)C)NC(=O)[C@H](CC(N)=O)NC(=O)[C@@H]1CCCN1C(=O)[C@@H](NC(=O)[C@H](CCCCNC(=O)CCCC[C@@H]1SC[C@@H]2NC(=O)N[C@@H]21)NC(=O)[C@@H](N)CC(N)=O)C(C)C)C(C)C)C(=O)N[C@@H](C)C(=O)N[C@@H](CCC(N)=O)C(=O)N[C@@H](CCCCN)C(=O)N[C@H](C(=O)N[C@@H](C)C(=O)N[C@@H](CCCNC(=N)N)C(=O)N[C@H](C(=O)O)[C@@H](C)O)C(C)C

Structure (SMILES)	fold change (FC) [1]	fold change (FC) [2]	Drug uptake [3]
CC(C)C[C@H](NC(=O)[C@H](CC(=O)O)NC(=O)CNC(=O)[C@H](CCCNC(=N)N)NC(=O)[C@H](CC(C)C)NC(=O)[C@H](CC(N)=O)NC(=O)[C@@H]1CCCN1C(=O)[C@@H](NC(=O)[C@H](CCCCNC(=O)CCCC[C@@H]1SC[C@@H]2NC(=O)N[C@@H]21)NC(=O)[C@H](CC(N)=O)NC(=O)CNC(=O)CN(CCN(CCN(CC(=O)O)CC(=O)O)CC(=O)O)CC(=O)O)C(C)C)C(=O)N[C@@H](CCC(N)=O)C(=O)N[C@H](C(=O)N[C@@H](CC(C)C)C(=O)N[C@@H](C)C(=O)N[C@@H](CCC(N)=O)C(=O)N[C@@H](CCCCN)C(=O)N[C@H](C(=O)N[C@@H](C)C(=O)N[C@@H](CCCNC(=N)N)C(=O)N[C@H](C(=O)O)[C@@H](C)O)C(C)C)C(C)C	0.97	1.28	Not Active
